For assay [1], the system named is SM26-derived strain K103N, Y181C, L100I, V189I, E194G. Briefly: Antiviral activity against strain selected with compound 1 1.000 μM (day 13), acutely infected MT4 cells. It counts as cell-based, HIV-1. The conditions noted are these: SM26 selected with Compound 1 1.000 μM, breakthrough day 13, additional L100I; for EC50: Human immunodeficiency virus 1, MT4, 312 h, unit inferred, read-out: Median EC50. As for the experimental part:
(§1) Determination of the antiviral activity of a compound was done as described in Pauwels R. et al. (J Virol Methods 1988; 20(4):309-21). Various concentrations of the test compounds were brought into each well of a flat-bottom microtiter plate. Subsequently, HIV and MT4 cells were added to a final concentration of 200-250 50% cell culture infectious doses (CCID50)/well and 30,000 cells/well, respectively. After 5 days of incubation (37° C., 5% CO2), the cytopathic effect of the replicating virus was determined by the tetrazolium colorimetric MTT method. The dose protecting 50% of the cells from virus cytopathic effect was defined as the EC50, while the dose achieving 90% protection was defined as the EC90. Reporter gene assay The reporter gene assay used MT4-LTR-EGFP cells. Upon infection by HIV-1, the expression of the viral tat product increases transcription from the HIV-1 LTR promoter, leading to high-level expression of the reporter gene product. The assay procedure was similar to the CPE assay, except for the end reading of the assay, which was performed on day 3 by measuring the relative fluorescence of treated cultures and comparing this with the relative fluorescence of untreated cultures. The EC50 or the EC90 of a compound was defined as the concentration that inhibited the relative fluorescence by 50% or 90% respectively.
(§2) Cells are infected at a high MOI (such as 1-50 CCID50/cell), corresponding to >10^9 viral RNA copies/ml. These experiments have been designed to mimic the quasi-species variability that is observed in HIV infected individuals where 10^9 to 10^10 new viruses are produced daily with a mutation rate of 10^−4 to 10^−5. The infected MT4-LTR-EGFP cells are treated with inhibitors at 40, 200 nM, 1 μM and higher for a maximum of 30 days. The cultures are sub-cultivated and scored on virus-induced fluorescence and cytopathicity every 3-4 days. If full virus breakthrough (100% CPE) is observed the supernatants was collected and stored (new virus strain). If no full CPE was observed the cells were sub-cultivated and further grown in the presence of the same concentration compound till full virus breakthrough, with a maximum of 30 days. From the emerging virus populations a virus stock was grown in the absence of compounds and titrated. The sensitivities of the isolated strains to HIV-1 RT inhibitors were determined and the strains were genotyped.
(§3) In vitro drug selection experiments starting from wild-type HIV-1/LAI under pressure of compound 1 have been performed.

Assay [2] has as its system SM26-derived strain K103N, Y181C, L100I, V189V/I, E194G/E, R356R/K. Briefly: Antiviral activity against strain selected with compound 1 0.200 μM (day 9), acutely infected MT4 cells. In kind it is cell-based, HIV-1. The conditions noted are these: SM26 selected with Compound 1 0.200 μM, breakthrough day 9, additional L100I; for EC50: Human immunodeficiency virus 1, MT4, 216 h, unit inferred, read-out: Median EC50. The procedure:
as §1, §2, §3

Another assay relates to HIV-1/LAI. The assay is described as follows: Antiviral activity against wild-type strain in acutely infected MT4 cells. In kind it is cell-based. To be noted: for EC50: Human immunodeficiency virus 1, table prints no unit (EC50 in μM), read-out: Median EC50. As for the experimental part: as §1, §2, §3
Assay [3] has as its system SM26-derived strain K103N, Y181C, L100I, V189V/I, E194G/E. The assay is described as follows: Antiviral activity against strain selected with compound 1 0.200 μM (day 7), acutely infected MT4 cells. In kind it is cell-based, HIV-1. To be noted: SM26 selected with Compound 1 0.200 μM, breakthrough day 7, additional L100I; for EC50: Human immunodeficiency virus 1, MT4, 168 h, unit inferred, read-out: Median EC50. As for the experimental part: as §1, §2, §3

The test system of assay [4] is SM26 (K103N, Y181C). The assay is described as follows: Antiviral activity against starting strain SM26 in acutely infected MT4 cells. The conditions noted are these: for EC50: Human immunodeficiency virus 1, no selecting compound, unit inferred, read-out: Median EC50; for FC (fold change in resistance, ratio of EC50 vs wild type): no selecting compound. In kind it is cell-based, HIV-1. As for the experimental part:
as §1, §2, §3

The subject of assay [5] is SM26-derived strain K103N, Y181C, E194E/K. The assay is described as follows: Antiviral activity against strain selected with compound 1 0.040 μM, acutely infected MT4 cells. The conditions noted are these: SM26 selected with Compound 1 0.040 μM, breakthrough day 7, additional E194E/K; for EC50: Human immunodeficiency virus 1, MT4, 168 h, unit inferred, read-out: Median EC50. It counts as cell-based, HIV-1. As for the experimental part: as §1, §2, §3

In assay [6] the test system is SM26 (K103N, Y181C). The assay is described as follows: In vitro selection of resistant strains at high MOI (virus breakthrough). In kind it is cell-based, HIV-1.
Assay [7] concerns SM26-derived strain K103N, Y181C, L100I, E194G. Briefly: Antiviral activity against strain selected with compound 1 1.000 μM (day 11), acutely infected MT4 cells. It counts as cell-based, HIV-1. To be noted: SM26 selected with Compound 1 1.000 μM, breakthrough day 11, additional L100I; for EC50: Human immunodeficiency virus 1, MT4, 264 h, unit inferred, read-out: Median EC50. As for the experimental part: as §1, §2, §3

Where only a bound is given, the exact number is not on record here.

In general, EC50 refers to the concentration that produces a half-maximal response. Take `Cc1cc(C#N)cc(C)c1Oc1nc(Nc2ccc(C#N)cc2)nc(N)c1Br` [Compound 1, Benzonitrile, 4-[[6-amino-5-bromo-2-[(4-cyanophenyl)-amino]-4-pyrimidinyl]oxy]-3,5-dimethyl-]: the EC50 in assay [1] was 261 nM; in assay [2], 26.8 nM; with HIV-1/LAI, 0.0014 µM; in assay [3] it was 149 nM; in the assay on SM26 (K103N, Y181C) [4] it was 5 nM; in assay [5], 7.8 nM. Moreover, the half-maximal effective concentration (EC50) in assay [7] was determined as 668 nM. In addition, the “FC (fold change in resistance, ratio of EC50 vs wild type)” value in assay [1] is on record as 187; in assay [2] it was 19; in the assay with HIV-1/LAI, 1; in assay [3], 106; in the assay on SM26 (K103N, Y181C) [4] it was 4; in assay [5] it was 6. The “FC (fold change in resistance, ratio of EC50 vs wild type)” value in assay [7] is reported as 477. The Days to breakthrough result with SM26 (K103N, Y181C) [6] (0.040 μM, selected E194E/K) is listed as “day 7”; in the assay with SM26 (K103N, Y181C) [6] (0.200 μM (first culture), selected L100I, V189V/I, E194G/E), “day 7”; in the assay with SM26 (K103N, Y181C) [6] (0.200 μM (second culture), selected L100I, V189V/I, E194G/E, R356R/K), “day 9”; in the assay on SM26 (K103N, Y181C) [6] (1.000 μM (first culture), selected L100I, E194G) it was “day 11”; in the assay with SM26 (K103N, Y181C) [6] (1.000 μM (second culture), selected L100I, V189I, E194G), “day 13”.
In the case of `O=C1Nc2ccc(Cl)cc2[C@@](C#CC2CC2)(C(F)(F)F)O1` [Efavirenz], the concentration giving a half-maximal response (EC50) was 3600 nM in assay [1]; 56.5 nM in assay [2]; 0.001 µM in the assay on HIV-1/LAI; 2750 nM in assay [3]; 36.7 nM in the assay on SM26 (K103N, Y181C) [4]; 32.7 nM in assay [5]. For the same compound, the EC50 in assay [7] stood at 6730 nM. The “FC (fold change in resistance, ratio of EC50 vs wild type)” value in assay [1] turned out to be 3.595; in assay [2] it was 57; in the assay with HIV-1/LAI it was 1; in assay [3], 2.747; in the assay with SM26 (K103N, Y181C) [4] it was 37; in assay [5] it was 33.
With `Cc1ccnc2c1NC(=O)c1cccnc1N2C1CC1` [Nevirapine], the EC50 is greater than 10000 nM in assay [1]; greater than 10000 nM in assay [2]; 0.0763 µM in the assay with HIV-1/LAI; greater than 10000 nM in assay [3]; greater than 10000 nM in the assay on SM26 (K103N, Y181C) [4]; greater than 10000 nM in assay [5]. Also, the concentration for a half-maximal effect (EC50) in assay [7] is greater than 10000 nM. For the same compound, the “FC (fold change in resistance, ratio of EC50 vs wild type)” value in assay [1] was greater than 131; in assay [2], greater than 131; in the assay on HIV-1/LAI, 1; in assay [3] it was greater than 131; in the assay on SM26 (K103N, Y181C) [4], greater than 131; in assay [5] it was greater than 131. Moreover, the “FC (fold change in resistance, ratio of EC50 vs wild type)” value in assay [7] is recorded as greater than 131.

Values taken from patent US20050214744A1, “New mutational profiles in hiv-1 reverse transcriptase correlated with phenotypic drug resistance” (priority 2002, published 2005).
